Laboratory results published in ChEMBL document CHEMBL2396570, “Structural basis for the design and synthesis of selective HDAC inhibitors” (Bioorg Med Chem, 2013).

How the values were obtained:
[1] = species: Homo sapiens; experiment: Selectivity ratio for human HDAC4 over human HDAC3
[2] = species: Homo sapiens; experiment: Selectivity ratio for human HDAC4 over human HDAC1
[3] = species: Homo sapiens; experiment: Selectivity ratio for human HDAC4 over human HDAC8
[4] = species: Homo sapiens; experiment: Selectivity ratio for human HDAC4 over human HDAC2

Measured: Selectivity ratio

Cn1cc(/C=C/C(=O)c2cccc(F)c2)cc1/C=C/C(=O)NO
176: [1] | [2] | [3] | [4]
